Test results: patent EP0328090A2 (priority 1988, dated 1989)
Starred links: 1 amine or outer side, 2 acyl side, 3 side chain; linkers in the order of their positions; H or OH if unused. Non-standard residues stand in square brackets, D forms with d. Residues, ends and D or L forms follow the SMILES beside them. X1 = CCNC[C@@H](C(=O)[*:2])N(C)[*:1]; Sar = CNCC(=O)O

Tested on: serum LH concentration
Assay: In vivo LH release in castrated rats (serum LH by RIA)
Conditions: i.v., dose producing half-maximal time integrated LH release
Procedure: (§1) The biological activities of the compounds of the invention are determined by the following assays: • (a) Receptor Binding. A radioligand receptor binding assay is performed in a similar way to that described in the literature (J. Marion et al., Mol. Pharmacol. 19 399 (1981)). […] The radioligand (50pM), receptors, and compounds to be tested are coincubated for 2 hours at 4°C. Bound ligand is separated from free ligand via centrifugation and aspiration. […] This assay has been adopted from the literature (H.A. Jinnah and P.M. Conn, Endrocrinology 118 2599 (1986)). Rat pituitaries are removed from immature female rats, minced, and dissociated with collagenase/hyaluronidase. They are allowed to attach to 48-well microtiter plates for 48-72 hours, then are exposed to test compounds for 3 hours at 37°C. The medium is assayed for released LH by RIA (radioimmunoassay). […] The compound to be tested is administered to castrated rats intraveneously and the serum LH concentration at various time points is measured by RIA. The time inteorated LH response is calculated and the dose producing half-maximal LH release (ED₅₀) is reported. • (d) Stability against enzymatic degradation. The intestinal stability of the compounds of the invention was determined using in vitro rat jejunum in a reperfusion system. The fractional mucosal loss was an indicator of the relative rate if degradation of the compounds thirty minutes after introduction of the luminal bath.

SMILES | ED₅₀ [µg/kg]
CCNC[C@@H](C(=O)N[C@@H](Cc1ccc(O)cc1)C(=O)N[C@H](Cc1c[nH]c2ccccc12)C(=O)N[C@@H](CC(C)C)C(=O)N[C@@H](CCCNC(=N)N)C(=O)N1CCC[C@H]1C(=O)NCC)N(C)C(=O)[C@H](Cc1c[nH]c2ccccc12)NC(=O)[C@H](Cc1c[nH]cn1)NC(=O)CN(C)C(C)=O [Ex. 7, N-Ac-Sar-His-Trp-(3)-N-Et-(2)-N-Me-Dap-Tyr-D-Trp-Leu-Arg-Pro-NHEt] (Ac-[Sar]HW[X1]Y[dW]LRP-NHEt) | 9.64
CCNC(=O)CC[C@H](NC(=O)NCC)C(=O)N[C@@H](Cc1c[nH]cn1)C(=O)N[C@@H](Cc1c[nH]c2ccccc12)C(=O)N(C)[C@@H](CO)C(=O)N[C@@H](Cc1ccc(O)cc1)C(=O)N[C@H](Cc1c[nH]c2ccccc12)C(=O)N[C@@H](CC(C)C)C(=O)N[C@@H](CCCNC(=N)N)C(=O)N1CCC[C@H]1C(=O)NCC [Ex. 12, (2)-N-(Ethylaminocarbonyl)-(5)-N-ethylamido-Glu-His-Trp-N-Me-Ser-Tyr-D-Trp-Leu-Arg-Pro-NHEt] | 9.90
CC(C)C[C@H](NC(=O)CNC(=O)[C@H](Cc1ccc(O)cc1)NC(=O)[C@H](CO)NC(=O)[C@H](Cc1c[nH]c2ccccc12)NC(=O)[C@H](Cc1c[nH]cn1)NC(=O)[C@@H]1CCC(=O)N1)C(=O)N[C@@H](CCCNC(=N)N)C(=O)N1CCC[C@H]1C(=O)NCC(N)=O [LHRH, reference compound] | 100

Biological target: T1, LHRH receptors (Rattus norvegicus, UniProt P30969)
T1 sequence (P30969 1-327): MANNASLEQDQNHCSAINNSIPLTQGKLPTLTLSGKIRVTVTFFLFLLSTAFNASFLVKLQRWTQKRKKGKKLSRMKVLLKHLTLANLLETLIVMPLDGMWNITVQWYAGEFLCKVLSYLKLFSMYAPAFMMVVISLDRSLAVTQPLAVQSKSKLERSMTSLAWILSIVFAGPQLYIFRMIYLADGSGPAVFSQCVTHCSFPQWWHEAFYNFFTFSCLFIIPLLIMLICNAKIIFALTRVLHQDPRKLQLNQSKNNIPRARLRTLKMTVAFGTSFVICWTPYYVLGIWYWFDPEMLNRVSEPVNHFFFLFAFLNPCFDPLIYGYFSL
Assay: Radioligand receptor binding assay
Conditions: rat pituitary membranes; radioiodinated [D-Leu⁶-des Gly¹⁰]-LHRH ethyl amide 50pM; 2 hours at 4°C; read-out: Receptor Binding pkI (converted)
Procedure: as §1

Ki [pM] | SMILES
39.8 | CC(C)C[C@H](NC(=O)[C@@H](Cc1ccc2ccccc2c1)NC(=O)[C@H](Cc1ccc(O)cc1)NC(=O)[C@H](CO)N(C)C(=O)[C@H](Cc1c[nH]c2ccccc12)NC(=O)[C@H](Cc1c[nH]cn1)NC(=O)[C@@H]1CCC(=O)N1)C(=O)N[C@@H](CCCN=C(N)N)C(=O)N1CCC[C@H]1C(=O)NCC(N)=O [Ex. 3, (pyro)Glu-His-Trp-N-Me-Ser-Tyr-D-(2)-Nal-Leu-Arg-Pro-Gly-NH₂]
38 | CCNC(=O)[C@@H]1CCCN1C(=O)[C@H](CCCNC(=N)N)NC(=O)[C@H](CC(C)C)N1CC[C@H](NC(=O)[C@H](Cc2ccc(O)cc2)NC(=O)[C@H](CO)N(C)C(=O)[C@H](Cc2c[nH]c3ccccc23)NC(=O)[C@H](Cc2c[nH]cn2)NC(=O)[C@@H]2CCC(=O)N2)C1=O [Ex. 13, (pyro)-Glu-His-Trp-N-Me-Ser-Tyr-6,7-[2-(S-3-amino-2-oxo-pyrrolidin-1-yl)-S-2-Isopropylmethylacetyl]-Arg-Pro-NHEt]
15.8 | CCNC(=O)[C@@H]1CCCN1C(=O)[C@H](CCCN=C(N)N)NC(=O)[C@H](CC(C)C)NC(=O)[C@@H](Cc1c[nH]c2ccccc12)NC(=O)[C@H](Cc1ccc(O)cc1)N(C)C(=O)[C@H](CO)NC(=O)[C@H](Cc1c[nH]c2ccccc12)NC(=O)[C@H](Cc1c[nH]cn1)NC(=O)[C@@H]1CCC(=O)N1 [Ex. 20, (pyro)Glu-His-Trp-Ser-N-Me-Tyr-D-Trp-Leu-Arg-ProNHEt]
692 | CCNC(=O)[C@@H]1CCCN1C(=O)[C@H](CCCN=C(N)N)NC(=O)[C@H](CC(C)C)NC(=O)[C@@H](CC(C)C)N(C)C(=O)[C@H](Cc1ccc(O)cc1)NC(=O)[C@H](CO)NC(=O)[C@H](Cc1c[nH]c2ccccc12)NC(=O)[C@H](Cc1cnc[nH]1)NC(=O)[C@@H]1CCC(=O)N1 [Ex. 22, (pyro)Glu-His-Trp-Ser-Tyr-N-Me-D-Leu-Leu-Arg-ProNHEt]
